Assay results as given in patent US20260325487A1 (BS BIOTECHNA SPOLKA AKCYJNA, priority 2023, published 2026).

What was measured:
8 cell lines = assay: SRB anti-proliferative assay, summary over the panel of 8 cell lines (Example III); type: cell-based, human; conditions: CI analysis not possible
Experimental: (§1) Cells were thawed from ampoules stored in liquid nitrogen and cultured in petri dishes in the appropriate culture medium according to Table 16, in a humidified 5% CO2 atmosphere at 37° C. Cells were passaged twice weekly using EDTA-Trypsin solution, pH 8, as a separating agent. Counted cells with a viability of at least 90% as assessed with Trypan-Blue solution were used for anti-proliferation assays.
Twenty-four hours before the addition of the test compounds/combinations, cells were seeded into 384-well plates at 50 μL/well and a density of 10^3 cells/well, in the appropriate culture medium. […] Solutions of the compounds were diluted in the test medium—RPMI-1640 and Opti-MEM in a 1:1 ratio, and the medium was supplemented with 2 mM glutamine and 5% fetal bovine serum FBS.
Unbound dye was removed by washing the plates (4×) in 1% (v/v) acetic acid, and protein-bound dye was extracted with 10 mM unbuffered Tris base and the optical density (A=540 nm) was determined in a BioTek Synergy H4 Hybrid computer microplate reader (BioTek Instruments USA). […] The raw absorbance results were analysed in Microsoft Excel software using the formula:
[formula] • Where: • % Zahlnh-inhibition of proliferation • Am—absorbance of wells without cells (medium) • Ak—absorbance of control wells (cells treated with pure culture medium) • Ap—absorbance of wells treated with compounds […]

NCI-H520 = assay: SRB anti-proliferative assay, NCI-H520, with CalcuSyn combination index (Example 1); type: cell-based; conditions: Homo sapiens, NCI-H520, 72 h, read-out: Zah. (inhibition of proliferation)
Experimental: as §1, with “in” for “in the”, “2,” for “16,”, “8.” for “8, as a separating agent.”, “anti-proliferative” for “anti-proliferation”
(§2) Twenty-four hours before the addition of the test compounds/combinations, cells were seeded into 384-well plates at 50 μL/well and a density of 10^3 cells/well, in the appropriate culture medium.
(§3) Solutions of the compounds were diluted in the test medium-RPMI-1640 and Opti-MEM in a 1:1 ratio, and the medium was supplemented with 2 mM glutamine and 5% fetal bovine serum FBS. After 72 h, colourimetric assessment of cell growth was performed by SRB. […] Unbound dye was removed by washing the plates (4×) in 1% (v/v) acetic acid, and protein-bound dye was extracted with 10 mM unbuffered Tris base and the optical density (A=540 nm) was determined in a BioTek Synergy H4 Hybrid computer microplate reader (BioTek Instruments USA). The entire washing/staining procedure was performed using a BioTek EL406 washing station (BioTek Instruments USA). The raw absorbance results were analysed in Microsoft Excel software using the formula:
(§4) [formula] • Where: • % Zahlnh-inhibition of proliferation • Am—absorbance of wells without cells (medium) • Ak—absorbance of control wells (cells treated with pure culture medium) • Ap—absorbance of wells treated with compounds
(§5) Each compound at the indicated concentrations was tested in triplicate in one experiment. Each experiment was repeated three times. Data analysis was supplemented with synergy assessment using CalcuSyn software. […] A CI value below 0.8 indicates synergism, 0.8-1.2 an additive effect, above 1.2 an antagonism.

A375 = assay: SRB anti-proliferative assay, A375, with CalcuSyn combination index (Example 1); type: cell-based; conditions: Homo sapiens, A-375, 72 h, read-out: Zah. (inhibition of proliferation)
Experimental: as §1, with “in” for “in the”, “2,” for “16,”, “8.” for “8, as a separating agent.”, “anti-proliferative” for “anti-proliferation”
as §2, §3, §4, §5

SK-MES-1 = assay: SRB anti-proliferative assay, SK-MES-1, with CalcuSyn combination index (Example 1); type: cell-based; conditions: Homo sapiens, SK-MES-1, 72 h, read-out: Zah. (inhibition of proliferation)
Experimental: as §1, with “in” for “in the”, “2,” for “16,”, “8.” for “8, as a separating agent.”, “anti-proliferative” for “anti-proliferation”
as §2, §3, §4, §5

SK-MEL3 = assay: SRB anti-proliferative assay, SK-MEL3, with CalcuSyn combination index (Example 1); type: cell-based; conditions: Homo sapiens, SK-MEL3, 72 h, read-out: Zah. (inhibition of proliferation)
Experimental: as §1, with “in” for “in the”, “2,” for “16,”, “8.” for “8, as a separating agent.”, “anti-proliferative” for “anti-proliferation”
as §2, §3, §4, §5

In the case of `C=CCNC1=C2C[C@@H](C)C[C@H](OC)[C@H](O)[C@@H](C)/C=C(\C)[C@H](OC(N)=O)[C@@H](OC)/C=C\C=C(/C)C(=O)NC(=CC1=O)C2=O` [17AAG, 17-AAG (tanespimycin)], the 17-AAG activity (8 cell lines) is reported as “low”, the inhibition at 0.0031 µM (NCI-H520) is reported as 5.9% and the inhibition at 0.01 µM (NCI-H520) is reported as 15.3%. For the same molecule, the inhibition at 0.03 µM (NCI-H520) was 28.3%, the inhibition at 0.1 µM (NCI-H520) was 48.1% and the inhibition at 0.3124 µM (NCI-H520) was 56.8%. The inhibition at 1 µM (NCI-H520) was 59.9%, the inhibition at 3.1392 µM (NCI-H520) was 63.5% and the inhibition at 10 µM (NCI-H520) was 65.8%. For the same molecule, the inhibition at 0.0031 µM (A375) was 24.1%, the inhibition at 0.01 µM (A375) was 53.3% and the inhibition at 0.0314 µM (A375) was 83.2%. For the same molecule, the inhibition at 0.1 µM (A375) was 89.2%, the inhibition at 0.3155 µM (A375) was 91.6% and the inhibition at 1 µM (A375) was 96.3%. The inhibition at 3.1546 µM (A375) was 97.1%, the inhibition at 10 µM (A375) was 97% and the inhibition at 0.0031 µM (SK-MES-1) was 9.2%. It also gave an inhibition at 0.01 µM (SK-MES-1) of 12.7%, an inhibition at 0.03 µM (SK-MES-1) of 55.1% and an inhibition at 0.1 µM (SK-MES-1) of 80%. It also gave an inhibition at 0.3124 µM (SK-MES-1) of 85.2%, an inhibition at 1 µM (SK-MES-1) of 86.5% and an inhibition at 3.1392 µM (SK-MES-1) of 86.9%. For the same molecule, the inhibition at 10 µM (SK-MES-1) was 87%, the inhibition at 0.0031 µM (SK-MEL3) was 1.1% and the inhibition at 0.01 µM (SK-MEL3) was 14%. The inhibition at 0.0314 µM (SK-MEL3) was 40.3%, the inhibition at 0.1 µM (SK-MEL3) was 48.5% and the inhibition at 0.3155 µM (SK-MEL3) was 58.1%. The inhibition at 1 µM (SK-MEL3) was 58.5%, the inhibition at 3.1546 µM (SK-MEL3) was 60.7% and the inhibition at 10 µM (SK-MEL3) was 76.6%.
